The target of test [1] is T1, EP2 (Homo sapiens, UniProt P43116). The test is described as follows: cAMP assay, HEK-EBNA cells expressing EP2. The format is cell-based. Also on record: expressed in transfected cells; host or cells: HEK-EBNA. The conditions noted are these: value in parentheses in EP2 column, read-out: EP2 EC50 (nM), measurement of cAMP (data in parentheses). How it is done: A 384-well drug plate was prepared to contain 6 test compounds, PGE2 and cAMP in 16 serial dilutions in triplicate, using a Biomek station. HEK-EBNA cells expressing a target PG receptor subtype (EP2 or EP4) were suspended in a stimulation buffer (HBSS, 0.1% BSA, 0.5 mM IBMX and 5 mM HEPES, pH 7.4) in a density of 10^4 cells/5 μl. The reaction was initiated by mixing 5 μL drug dilutions with 5 μl of HEK-EBNA cells in a well, carried out for 30 min at room temperature, and followed by the addition of 5 μl anti-cAMP acceptor beads in the control buffer with Tween-20 (25 mM NaCl, 0.03% Tween-20, 5 mM HEPES, pH7.4). After 30 min in the dark at room temperature, the mixtures were incubated with 15 μl biotinylated-cAMP/strepavidin donor beads in Lysis/Detection buffer (0.1% BSA, 0.3% Tween-20 and 5 mM HEPES, pH7.4) for 45 min at the room temperature. Fluorescence changes were read using a Fusion-alpha HT microplate reader.
In general terms: Changes in cAMP serve as a functional read-out for many G protein-coupled receptors.

Test [2] concerns the target T1, EP2. Put plainly: Competition binding, [3H]PGE2, EP2 (Ki). The arrangement: expressed in transfected cells; membranes or whole cells. The conditions noted are these: HEK 293 cells stably expressing human EP2, [3H]PGE2. The method, then: Competition binding experiments were performed in a medium containing Hank's balanced salt solution, Hepes 20 mM, pH 7.3, membranes (˜60 μg protein) or 2×10^5 cells from HEK 293 cells stably expressing human EP2 receptors, [^3H]PGE2 (10 nM) and various concentrations of test compounds in a total volume of 300 μl. Reaction mixtures were incubated at 23° C. for 60 min, and were filtered over Whatman GF/B filters under vacuum. Filters were washed three times with 5 ml ice-cold buffer containing 50 mM Tris/HCl (pH 7.3). Non-specific binding was estimated in the presence of excess unlabeled PGE2 (10 μM). Binding data fitted to the binding model for a single class of binding sites, using nonlinear regression analysis. IC50 values thus obtained were converted to Ki using the equation of Ki=(IC50/(1+[L]/KD) where [L] represents PGE2 concentration (10 nM) and KD the dissociation constant for [^3H]PGE2 at human EP2 receptors (40 nM).
HEK-293 cells stably expressing the human or feline FP receptor, or EP1, EP2, or EP4 receptors were washed with TME buffer, scraped from the bottom of the flasks, and homogenized for 30 sec using a Brinkman PT 10/35 polytron. TME buffer was added to achieve a final 40 ml volume in the centrifuge tubes (the composition of TME is 100 mM TRIS base, 20 mM MgCl2, […]; 10N HCl is added to achieve a pH of 7.4).
The cell homogenate was centrifuged at 19000 r.p.m. for 20 min at 4° C using a Beckman Ti-60 rotor. The resultant pellet was resuspended in TME buffer to give a final 1 mg/ml protein concentration, as determined by Biorad assay. Radioligand binding competition assays vs. [^3H-]17-phenyl PGF2α. (5 nM) were performed in a 100 μl volume for 60 min. Binding reactions were started by adding plasma membrane fraction. The reaction was terminated by the addition of 4 ml ice-cold TRIS-HCl buffer and rapid filtration through glass fiber GF/B filters using a Brandel cell harvester. The filters were washed 3 times with ice-cold buffer and oven dried for one hour.
[^3H-] PGE2 (specific activity 180 Ci mmol) was used as the radioligand for EP receptors. [^3H] 17-phenyl PGF2α, was employed for FP receptor binding studies. Binding studies employing EP1, EP2, EP4 and FP receptors were performed in duplicate in at least three separate experiments. A 200 μl assay volume was used. Incubations were for 60 min at 25° C. and were terminated by the addition of 4 ml of ice-cold 50 mM TRIS-HCl, followed by rapid filtration through Whatman GF/B filters and three additional 4 ml washes in a cell harvester (Brandel). Competition studies were performed using a final concentration of 5 nM [^3H]-PGE2, or 5 nM [^3H] 17-phenyl PGF2αand non-specific binding determined with 10^−5M of unlabeled PGE2, or 17-phenyl PGF2α, according to receptor subtype studied.

For another test, the target named is T2, hFP (Homo sapiens, UniProt P43088).
T2 construct: expressed in transfected cells
The test is described as follows: FLIPR calcium signal, FP. Conditions: HEK-293(EBNA). The format is cell-based. How it is done:
HEK-293(EBNA) cells, stably expressing one type or subtype of recombinant human prostaglandin receptors (prostaglandin receptors expressed: hDP/Gqs5; hEP1; hEP2/Gqs5; hEP3A/Gqi5; hEP4/Gqs5; hFP; hIP; hTP), were cultured in 100 mm culture dishes in high-glucose DMEM medium containing 10% fetal bovine serum, 2 mM 1-glutamine, 250 μg/ml geneticin (G418) and 200 μg/ml hygromycin B as selection markers, and 100 units/ml penicillin G, 100 μg/ml streptomycin and 0.25 μg/ml amphotericin B.
Cells were seeded at a density of 5×10^4 cells per well in Biocoat® Poly-D-lysine-coated black-wall, clear-bottom 96-well plates (Becton-Dickinson) and allowed to attach overnight in an incubator at 37° C. Cells were then washed two times with HBSS-HEPES buffer (Hanks Balanced Salt Solution without bicarbonate and phenol red, 20 mM HEPES, pH 7.4) using a Denley Cellwash plate washer (Labsystems). After 45 minutes of dye-loading in the dark, using the calcium-sensitive dye Fluo-4 AM at a final concentration of 2 μM, plates were washed four times with HBSS-HEPES buffer to remove excess dye leaving 100 μl in each well. Plates were re-equilibrated to 37° C. for a few minutes.
Cells were excited with an Argon laser at 488 nm, and emission was measured through a 510-570 nm bandwidth emission filter (FLIPR™, Molecular Devices, Sunnyvale, Calif.). Drug solution was added in a 50 μl volume to each well to give the desired final concentration. The peak increase in fluorescence intensity was recorded for each well. On each plate, four wells each served as negative (HBSS-HEPES buffer) and positive controls (standard agonists: BW245C (hDP); PGE2 (HEP1; hEP2/Gqs5; hEP3A/Gqi5; hEP4/Gqs5); PGF2α (hFP); carbacyclin (hIP); U-46619 (hTP), depending on receptor). The peak fluorescence change in each drug-containing well was then expressed relative to the controls.
Compounds were tested in a high-throughput (HTS) or concentration-response (CoRe) format. In the HTS format, forty-four compounds per plate were examined in duplicates at a concentration of 10^−5 M. To generate concentration-response curves, four compounds per plate were tested in duplicates in a concentration range between 10^−5 and 10^−11 M. The duplicate values were averaged. In either, HTS or CoRe format each compound was tested on at least 3 separate plates using cells from different passages to give an n≧3.

What is called EC50 is the concentration at which the effect is half-maximal. The term Ki denotes a measure of affinity in units of concentration, obtained from inhibition or displacement.

T2 sequence (P43088 whole entry): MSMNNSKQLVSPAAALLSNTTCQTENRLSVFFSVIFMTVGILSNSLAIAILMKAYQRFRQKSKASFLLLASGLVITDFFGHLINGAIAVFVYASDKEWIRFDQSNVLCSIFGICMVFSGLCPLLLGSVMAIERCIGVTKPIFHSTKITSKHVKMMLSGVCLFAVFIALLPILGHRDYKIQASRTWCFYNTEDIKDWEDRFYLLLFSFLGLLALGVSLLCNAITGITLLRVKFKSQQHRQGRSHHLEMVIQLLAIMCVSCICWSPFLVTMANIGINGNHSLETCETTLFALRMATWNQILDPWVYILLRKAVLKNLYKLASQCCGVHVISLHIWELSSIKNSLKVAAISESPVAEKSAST
T1 sequence (P43116 whole entry): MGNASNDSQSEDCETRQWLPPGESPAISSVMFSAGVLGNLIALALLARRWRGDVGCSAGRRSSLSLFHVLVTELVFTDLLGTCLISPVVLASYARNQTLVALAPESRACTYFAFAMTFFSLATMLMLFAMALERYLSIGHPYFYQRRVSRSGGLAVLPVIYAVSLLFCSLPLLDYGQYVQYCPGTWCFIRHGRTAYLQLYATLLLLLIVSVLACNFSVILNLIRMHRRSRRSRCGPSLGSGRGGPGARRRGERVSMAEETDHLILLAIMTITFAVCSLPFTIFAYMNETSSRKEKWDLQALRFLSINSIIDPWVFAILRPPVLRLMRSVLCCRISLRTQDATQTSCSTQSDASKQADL

`CCCCCC(O)c1ccc([C@@H]2[C@@H](C/C=C\CCCC(=O)O)[C@@H](Cl)C[C@H]2O)cc1` (stereo partly drawn) [Entry 9, (Z)-7-{(1R,2S,3R,5S)-5-Chloro-3-hydroxy-2-[4-(1-hydroxy-hexyl)-phenyl]-cyclopentyl}-hept-5-enoic acid]: the EC50 on EP2 [1] was determined as 324 nM. The same compound showed a Ki on EP2 [2] of 3950 nM. Besides, on hFP, the “Ca2+ Signal-EC50 (nM) FP” value is listed as “not active”.
The like results for `CCCCCC(O)c1ccc([C@@H]2[C@@H](CCCCCCC(=O)O)[C@H](Cl)C[C@H]2O)cc1` (stereo partly drawn) [Entry 14, 7-{(1R,2S,3R,5R)-5-Chloro-3-hydroxy-2-[4-(1-hydroxy-hexyl)-phenyl]-cyclopentyl}-heptanoic acid] were, in that order, 76 nM, 287 nM and “not active”.
The like results for `O=C(O)CCC/C=C\C[C@@H]1[C@@H](c2ccc(C(O)CCC3CCCCC3)cc2)[C@H](O)C[C@H]1Cl` (stereo partly drawn) [Entry 15, (Z)-7-{(1R,2S,3R,5R)-5-Chloro-2-[4-(3-cyclohexyl-1-hydroxy-propyl)-phenyl]-3-hydroxy-cyclopentyl}-hept-5-enoic acid] were, in that order, 176 nM, 260 nM and “not active”.
With `O=C(O)CCCCCC[C@@H]1[C@@H](c2ccc(C(O)CCC3CCCCC3)cc2)[C@H](O)C[C@H]1Cl` (stereo partly drawn) [Entry 16, 7-{(1R,2S,3R,5R)-5-Chloro-2-[4-(3-cyclohexyl-1-hydroxy-propyl)-phenyl]-3-hydroxy-cyclopentyl}-heptanoic acid], on EP2 [1], the EC50 turned out to be 5260 nM. This compound also gave an inhibitory constant (Ki) at EP2 [2] of 1290 nM. Also, the “Ca2+ Signal-EC50 (nM) FP” value at hFP is listed as “not active”.
The corresponding values for `O=C(O)CCCCCC[C@@H]1[C@@H](c2ccc(C(O)CC3CCCCC3)cc2)[C@H](O)C[C@H]1Cl` (stereo partly drawn) [Entry 18, 7-{(1R,2S,3R,5R)-5-Chloro-2-[4-(2-cyclohexyl-1-hydroxy-ethyl)-phenyl]-3-hydroxy-cyclopentyl}-heptanoic acid] are 2660 nM, 2290 nM and “not active”.
The like results for `O=C(O)CCCCCC[C@@H]1[C@@H](c2ccc(C(O)Cc3ccccc3)cc2)[C@H](O)C[C@H]1Cl` (stereo partly drawn) [Entry 22, 7-{(1 R,2S,3R,5R)-5-Chloro-3-hydroxy-2-[4-(1-hydroxy-2-phenyl-ethyl)-phenyl]-cyclopentyl}-heptanoic acid] were, in that order, 59 nM, 148 nM and “not active”.
With `O=C(O)CCC/C=C\C[C@@H]1[C@@H](c2ccc(C(O)CCc3ccccc3)cc2)[C@H](O)C[C@H]1Cl` (stereo partly drawn) [Entry 23, (Z)-7-{(1R,2S,3R,5R)-5-Chloro-3-hydroxy-2-[4-(1-hydroxy-3-phenyl-propyl)-phenyl]-cyclopentyl}-hept-5-enoic acid], the half-maximal effective concentration (EC50) at EP2 [1] was 125 nM. At EP2 [2], the inhibition constant Ki came out at 1130 nM. For the same compound, the “Ca2+ Signal-EC50 (nM) FP” value at hFP is recorded as “not active”.
For `O=C(O)CCCCCC[C@@H]1[C@@H](c2ccc(C(O)CCc3ccccc3)cc2)[C@H](O)C[C@H]1Cl` (stereo partly drawn) [Entry 24, 7-{(1R,2S,3R,5R)-5-Chloro-3-hydroxy-2-[4-(1-hydroxy-3-phenyl-propyl)-phenyl]-cyclopentyl}-heptanoic acid], the EC50 at EP2 [1] was 628 nM. Besides, the affinity at EP2 [2] corresponds to a Ki of 2160 nM. In addition, at hFP, the “Ca2+ Signal-EC50 (nM) FP” value is “not active”.
Regarding `CCCCCCC(O)c1ccc([C@@H]2[C@@H](C/C=C\CCCC(=O)O)[C@H](Cl)C[C@H]2O)cc1` (stereo partly drawn) [Entry 25, (Z)-7-{(1R,2S,3R,5R)-5-Chloro-3-hydroxy-2-[4-(1-hydroxy-heptyl)-phenyl]-cyclopentyl}-hept-5-enoic acid], the half-maximal effective concentration (EC50) at EP2 [1] was 12 nM. The compound further yielded a Ki on EP2 [2] of 278 nM. At hFP, the “Ca2+ Signal-EC50 (nM) FP” value is “not active”.
For the compound `CCCC(O)c1ccc([C@@H]2[C@@H](C/C=C\CCCC(=O)O)[C@H](Cl)C[C@H]2O)cc1` (stereo partly drawn) [Entry 26, (Z)-7-{(1R,2S,3R,5R)-5-Chloro-3-hydroxy-2-[4-(1-hydroxy-butyl)-phenyl]-cyclopentyl}-hept-5-enoic acid], the 50% effective concentration (EC50) at EP2 [1] was 7 nM. Also, on EP2 [2], the Ki was 1660 nM. Moreover, the “Ca2+ Signal-EC50 (nM) FP” value at hFP is on record as “not active”.
With `O=C(O)CCC/C=C\C[C@@H]1[C@@H](c2ccc(C(O)c3ccccc3)cc2)[C@H](O)C[C@H]1Cl` (stereo partly drawn) [Entry 28, (Z)-7-{(1R,2S,3R,5R)-5-Chloro-3-hydroxy-2-[4-(hydroxy-phenyl-methyl)-phenyl]-cyclopentyl}-hept-5-enoic acid], on EP2 [1], the concentration giving a half-maximal response (EC50) worked out at 9 nM. The compound also displayed a Ki on EP2 [2] of 564 nM. Besides, the “Ca2+ Signal-EC50 (nM) FP” value at hFP was “not active”.
Take `CCCCCC(O)c1cccc([C@@H]2[C@@H](C/C=C\CCCC(=O)O)[C@H](Cl)C[C@H]2O)c1` (stereo partly drawn) [Entry 29, (Z)-7-{(1R,2S,3R,5R)-5-Chloro-3-hydroxy-2-[3-(1-hydroxy-hexyl)-phenyl]-cyclopentyl}-hept-5-enoic acid]: the 50% effective concentration (EC50) at EP2 [1] worked out at 38 nM. On EP2 [2], this compound yielded a Ki of 1390 nM. On hFP, the “Ca2+ Signal-EC50 (nM) FP” value is “not active”.
Turning to `CCCCC(O)c1cccc([C@@H]2[C@@H](C/C=C\CCCC(=O)O)[C@H](Cl)C[C@H]2O)c1` (stereo partly drawn) [Entry 30, (Z)-7-{(1R,2S,3R,5R)-5-Chloro-3-hydroxy-2-[3-(1-hydroxy-pentyl)-phenyl]-cyclopentyl}-hept-5-enoic acid], the 50% effective concentration (EC50) at EP2 [1] stood at 10 nM. This compound also yielded an inhibition constant Ki on EP2 [2] of 1260 nM. Moreover, at hFP, the “Ca2+ Signal-EC50 (nM) FP” value was “not active”.

Source of the values: US7585895B2, “Therapeutic substituted cyclopentanes” (Allergan, Inc., priority 2005, dated 2009).
